Results reported in US9896441B2 (Lycera Corporation, priority 2014, dated 2018).

Key:
Gal4-RORγ-LBD = target: T1, Gal4-RORγ-LBD (Homo sapiens, UniProt P51449); test: Gal4-RORγ Luciferase Reporter Assay in HEK-293T Cells; type: cell-based; details: HEK-293 cells, luciferase reporter, with ursolic acid
T1 construct: expressed in transfected cells
T1 sequence (P51449 269-508 limits assumed): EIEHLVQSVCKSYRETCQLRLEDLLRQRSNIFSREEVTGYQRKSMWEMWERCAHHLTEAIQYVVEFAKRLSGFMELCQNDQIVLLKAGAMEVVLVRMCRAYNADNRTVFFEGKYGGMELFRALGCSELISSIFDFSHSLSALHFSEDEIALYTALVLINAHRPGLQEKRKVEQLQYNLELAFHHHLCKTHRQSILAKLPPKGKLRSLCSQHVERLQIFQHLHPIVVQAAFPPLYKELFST
Method in brief: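 Max Response was taken as the upper plateau of a 4-parameter logistic fit of luciferase signal, normalized to 100 for wells without ursolic acid or compound. Transiently Gal4-RORγ-LBD/Gal4-luc transfected HEK-293 cells carrying […] ursolic acid were incubated with test compounds (0.2% DMSO) overnight at 37 °C and read with One-Glo.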

RORγ-LBD = target: T2, RORγ-LBD (Homo sapiens, UniProt P51449); test: RORγ-Ligand Binding Domain (LBD) TR-FRET Assay; type: biochemical; details: RORγ-LBD TR-FRET
T2 construct: made in house; host or cells: SF9 cells (baculovirus); used as diluted lysate
T2 sequence (P51449 269-508 limits assumed): T1 sequence (P51449 269-508 limits assumed)
Method in brief: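 Lysate from SF9 cells expressing His-RORγ-LBD is diluted to about 3 nM final in 50 mM Tris pH 7.0 assay buffer. A biotin-tagged SRC1 LXXLL peptide goes in at 200 nM final, plus ursolic acid at 2 μM final. Test compounds carry 1% DMSO final; signal read by TR-FRET.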

EC50 (Gal4-RORγ-LBD) [nM] | EC50 (RORγ-LBD) [nM] | Compound
500 to 5000 | < 500 | C/C(=C\c1ccc2c(c1)N(S(=O)(=O)c1ccc(F)c(Cl)c1)C[C@H](CCC(=O)O)O2)c1c(F)cccc1Cl [Example 86E, (S,E)-3-(4-((3-chloro-4-fluorophenyl)sulfonyl)-6-(2-(2-chloro-6-fluorophenyl)prop-1-en-1-yl)-3,4-dihydro-2H-benzo[b][1,4]oxazin-2-yl)propanoic acid]
< 500 | < 500 | COC(=O)CC[C@H]1CN(S(=O)(=O)c2ccc(F)c(Cl)c2)c2cc(/C=C(\C)c3c(F)cccc3Cl)ccc2O1 [Example 86F, (S,E)-methyl 3-(4-((3-chloro-4-fluorophenyl)sulfonyl)-6-(2-(2-chloro-6-fluorophenyl)prop-1-en-1-yl)-3,4-dihydro-2H-benzo-[b][1,4]oxazin-2-yl)propanoate]
500 to 5000 | < 500 | CCn1cc(S(=O)(=O)N2C[C@H](CCC(=O)O)Oc3ccc(/C=C(\C)c4c(F)cccc4Cl)cc32)c(Cl)n1 [Example 86G, (S,E)-3-(4-((3-chloro-1-ethyl-1H-pyrazol-4-yl)sulfonyl)-6-(2-(2-chloro-6-fluorophenyl)prop-1-en-1-yl)-3,4-dihydro-2H-benzo[b][1,4]oxazin-2-yl)propanoic acid]
500 to 5000 | < 500 | CCn1cc(S(=O)(=O)N2C[C@H](CCC(=O)OC)Oc3ccc(/C=C(\C)c4c(F)cccc4Cl)cc32)c(Cl)n1 [Example 86H, (S,E)-methyl 3-(4-((3-chloro-1-ethyl-1H-pyrazol-4-yl)sulfonyl)-6-(2-(2-chloro-6-fluorophenyl)prop-1-en-1-yl)-3,4-dihydro-2H-benzo[b][1,4]oxazin-2-yl)propanoate]
500 to 5000 | < 500 | CCOc1nn(CC)cc1S(=O)(=O)N1C[C@H](CCC(=O)O)Oc2ccc(/C=C(\C)c3c(F)cccc3Cl)cc21 [Example 86I, (S,E)-3-(6-(2-(2-chloro-6-fluorophenyl)prop-1-en-1-yl)-4-((3-ethoxy-1-ethyl-1H-pyrazol-4-yl)sulfonyl)-3,4-dihydro-2H-benzo[b][1,4]oxazin-2-yl)propanoic acid]
< 500 | < 500 | CCOc1nn(CC)cc1S(=O)(=O)N1C[C@H](CCC(=O)OC)Oc2ccc(/C=C(\C)c3c(F)cccc3Cl)cc21 [Example 86J, (S,E)-methyl 3-(6-(2-(2-chloro-6-fluorophenyl)prop-1-en-1-yl)-4-((3-ethoxy-1-ethyl-1H-pyrazol-4-yl)sulfonyl)-3,4-dihydro-2H-benzo[b][1,4]oxazin-2-yl)propanoate]
< 500 | < 500 | COc1nn2c(c1S(=O)(=O)N1C[C@H](CCC(=O)O)Oc3ccc(/C=C(\C)c4c(F)cccc4Cl)cc31)CCCC2 [Example 86K, (S,E)-3-(6-(2-(2-chloro-6-fluorophenyl)prop-1-en-1-yl)-4-((2-methoxy-4,5,6,7-tetrahydropyrazolo[1,5-a]pyridin-3-yl)sulfonyl)-3,4-dihydro-2H-benzo[b][1,4]oxazin-2-yl)propanoic acid]
< 500 | < 500 | COC(=O)CC[C@H]1CN(S(=O)(=O)c2c(OC)nn3c2CCCC3)c2cc(/C=C(\C)c3c(F)cccc3Cl)ccc2O1 [Example 86L, (S,E)-methyl 3-(6-(2-(2-chloro-6-fluorophenyl)prop-1-en-1-yl)-4-((2-methoxy-4,5,6,7-tetrahydropyrazolo[1,5-a]pyridin-3-yl)-sulfonyl)-3,4-dihydro-2H-benzo[b][1,4]oxazin-2-yl)-propanoate]
500 to 5000 | < 500 | COc1cccc(S(=O)(=O)N2C[C@H](CCC(=O)O)Oc3ccc(/C=C(\C)c4c(F)cccc4Cl)cc32)c1 [Example 86M, (S,E)-3-(6-(2-(2-chloro-6-fluorophenyl)prop-1-en-1-yl)-4-((3-methoxyphenyl)sulfonyl)-3,4-dihydro-2H-benzo[b][1,4]oxazin-2-yl)propanoic acid]
< 500 | < 500 | COC(=O)CC[C@H]1CN(S(=O)(=O)c2cccc(OC)c2)c2cc(/C=C(\C)c3c(F)cccc3Cl)ccc2O1 [Example 86N, (S,E)-methyl 3-(6-(2-(2-chloro-6-fluorophenyl)prop-1-en-1-yl)-4-((3-methoxyphenyl)sulfonyl)-3,4-dihydro-2H-benzo[b][1,4]oxazin-2-yl)propanoate]
500 to 5000 | < 500 | C/C(=C\c1ccc2c(c1)N(S(=O)(=O)c1cccc(OC(F)F)c1)C[C@H](CCC(=O)O)O2)c1c(F)cccc1Cl [Example 86O, (S,E)-3-(6-(2-(2-chloro-6-fluorophenyl)prop-1-en-1-yl)-4-((3-(difluoromethoxy)phenyl)-sulfonyl)-3,4-dihydro-2H-benzo[b][1,4]oxazin-2-yl)propanoic acid]
500 to 5000 | < 500 | COC(=O)CC[C@H]1CN(S(=O)(=O)c2cccc(OC(F)F)c2)c2cc(/C=C(\C)c3c(F)cccc3Cl)ccc2O1 [Example 86P, (S,E)-methyl 3-(6-(2-(2-chloro-6-fluorophenyl)prop-1-en-1-yl)-4-((3-(difluoromethoxy)phenyl)-sulfonyl)-3,4-dihydro-2H-benzo[b][1,4]oxazin-2-yl)propanoate]
< 500 | < 500 | C/C(=C\c1ccc2c(c1)N(S(=O)(=O)c1cccc(C(C)C)c1)C[C@H](CCC(=O)O)O2)c1c(F)cccc1Cl [Example 86Q, (S,E)-3-(6-(2-(2-chloro-6-fluorophenyl)prop-1-en-1-yl)-4-((3-isopropylphenyl)sulfonyl)-3,4-dihydro-2H-benzo[b][1,4]oxazin-2-yl)propanoic acid]
< 500 | < 500 | COC(=O)CC[C@H]1CN(S(=O)(=O)c2cccc(C(C)C)c2)c2cc(/C=C(\C)c3c(F)cccc3Cl)ccc2O1 [Example 86R, (S,E)-methyl 3-(6-(2-(2-chloro-6-fluorophenyl)prop-1-en-1-yl)-4-((3-isopropylphenyl)sulfonyl)-3,4-dihydro-2H-benzo[b][1,4]oxazin-2-yl)propanoate]
500 to 5000 | < 500 | C/C(=C\c1ccc2c(c1)N(S(=O)(=O)c1cccc(OC(F)(F)F)c1)C[C@H](CCC(=O)O)O2)c1c(F)cccc1Cl [Example 86S, (S,E)-3-(6-(2-(2-chloro-6-fluorophenyl)prop-1-en-1-yl)-4-((3-(trifluoromethoxy)phenyl)-sulfonyl)-3,4-dihydro-2H-benzo[b][1,4]oxazin-2-yl)propanoic acid]
500 to 5000 | < 500 | COC(=O)CC[C@H]1CN(S(=O)(=O)c2cccc(OC(F)(F)F)c2)c2cc(/C=C(\C)c3c(F)cccc3Cl)ccc2O1 [Example 86T, (S,E)-methyl 3-(6-(2-(2-chloro-6-fluorophenyl)prop-1-en-1-yl)-4-((3-(trifluoromethoxy)phenyl)-sulfonyl)-3,4-dihydro-2H-benzo[b][1,4]oxazin-2-yl)propanoate]
500 to 5000 | < 500 | C/C(=C\c1ccc2c(c1)N(S(=O)(=O)c1c(Cl)nc3sccn13)C[C@H](CCC(=O)O)O2)c1c(F)cccc1Cl [Example 86U, (S,E)-3-(6-(2-(2-chloro-6-fluorophenyl)prop-1-en-1-yl)-4-((6-chloroimidazo[2,1-b]thiazol-5-yl)sulfonyl)-3,4-dihydro-2H-benzo[b][1,4]oxazin-2-yl)propanoic acid]
500 to 5000 | < 500 | COC(=O)CC[C@H]1CN(S(=O)(=O)c2c(Cl)nc3sccn23)c2cc(/C=C(\C)c3c(F)cccc3Cl)ccc2O1 [Example 86V, (S)-methyl 3-(6-(2-(2-chloro-6-fluorophenyl)prop-1-en-1-yl)-4-((6-chloroimidazo[2,1-b]thiazol-5-yl)sulfonyl)-3,4-dihydro-2H-benzo[b][1,4]oxazin-2-yl)propanoate]
> 10000 | < 500 | C/C(=C\c1ccc2c(c1)N(S(=O)(=O)c1cn(C(F)F)nc1C)C[C@H](CCC(=O)O)O2)c1c(F)cccc1Cl [Example 86W, (S,E)-3-(6-(2-(2-chloro-6-fluorophenyl)prop-1-en-1-yl)-4-((1-(difluoromethyl)-3-methyl-1H-pyrazol-4-yl)sulfonyl)-3,4-dihydro-2H-benzo[b][1,4]oxazin-2-yl)propanoic acid]
500 to 5000 | < 500 | COC(=O)CC[C@H]1CN(S(=O)(=O)c2cn(C(F)F)nc2C)c2cc(/C=C(\C)c3c(F)cccc3Cl)ccc2O1 [Example 86X, (S)-methyl 3-(6-(2-(2-chloro-6-fluorophenyl)prop-1-en-1-yl)-4-((1-(difluoromethyl)-3-methyl-1H-pyrazol-4-yl)sulfonyl)-3,4-dihydro-2H-benzo[b][1,4]oxazin-2-yl)propanoate]
< 500 | < 500 | COC(=O)CC[C@H]1CN(S(=O)(=O)c2cccc(C(F)(F)F)c2)c2cc(/C=C(\C)c3ccccc3Cl)ccc2O1 [Example 86Z, (S,E)-methyl 3-(6-(2-(2-chlorophenyl)prop-1-en-1-yl)-4-((3-(trifluoromethyl)phenyl)-sulfonyl)-3,4-dihydro-2H-benzo[b][1,4]oxazin-2-yl)propanoate]
